Reference: patent publication US8962574B2 (Boehringer Ingelheim International GmbH, priority 2008, dated 2015)
Values joined by “and” are separate entries in the source; they are usually repeats but may differ in a detail not shown here. Identical values can stand only once. Like-named read-outs stand apart in the source and are kept apart here.

Experiments:
[1] = test system: patients with chronic atrial fibrillation; assay: PETRO phase 2 12-week dose finding study; format: in vivo, human; details: 12 weeks
From the text: Primary endpoints were bleeding events and changes in D-dimer. […] Minor bleeding was dose related.

[2] = Clinical pharmacokinetics and pharmacodynamics of dabigatran etexilate; format: in vivo; details: after dosing
From the text: Ezekowitz M D, et al., Dabigatran with or without concomitant aspirin compared with warfarin alone in patients with nonvalvular atrial fibrillation (PETRO study), Am. […] The PETRO study is described below.
As noted above, management of warfarin therapy is complex, and failure to adequately monitor patients is associated with risk. […] It also interacts with many common foods, drugs and alcohol which alter its therapeutic effect, putting patients at risk of either a bleeding or thrombotic event. Therefore, warfarin therapy requires careful individualized dosing and frequent monitoring. The significant limitations of VKAs have created a need for an oral anticoagulant with a rapid onset of action, minimal drug interactions, and a predictable anticoagulation effect that needs no monitoring.
Peak levels are seen within 2-3 hours of oral administration. […] Steady-state is reached within 2-3 days with a twice daily regimen. […] The remainder undergoes conjugation with glucuronic acid to form acylglucuronides which are excreted primarily in the bile.

[3] = test system: patients with atrial fibrillation
Method: PETRO-Ex began while the PETRO study was ongoing and investigators were initially kept blinded to patient treatment group until PETRO was completed. Unblinding investigators to patient treatment was possible thereafter.
Data were summarized descriptively; no hypothesis was to be tested. Events were analyzed on the basis of the treatment at onset. Incidences were reported as number of patients with events as well as normalized to 100 patient-years on the respective treatment.
Written, informed consent was obtained from all patients.
Patients who completed PETRO on 50 mg b.i.d. were switched to 150 mg q.d. upon entry in the PETRO-Ex study (N=93 patients). […] Patients who were down titrated to 50 mg q.d. based on a glomerular filtration rate ≦50 mL/min during PETRO were excluded from the long-term trial; patients down-titrated in other dose levels remained on the q.d. treatment at that dose.
The total exposure reflects both trials, PETRO and PETRO-Ex, together.

[4] = individual patients with LFT abnormalities, one table line per patient (age c0, sex c1), ^# = with concomitant Bilirubin elevation to >2xULN

CCCCCCOC(=O)NC(=N)c1ccc(NCc2nc3cc(C(=O)N(CCC(=O)OCC)c4ccccn4)ccc3n2C)cc1 [dabigatran etexilate, 1-methyl-2-[N-[4-(N-n-hexyloxycarbonylamidino)phenyl]aminomethyl]benzimidazol-5-ylcarboxylic acid-N-(2-pyridyl)-N-(2-ethoxycarbonylethyl)amides]
Major bleeding events ([1]; 300 mg b.i.d. plus ASA groups): 6% | Major bleeding events, number ([1]; 300 mg b.i.d. plus ASA groups): Four | Minor bleeding ([1]; 50, 150, 300 mg b.i.d.): dose related | Onset of anticoagulant effect [2]: within one hour | ALT or AST >2xULN, subjects with event ([3]; 50 mg b.i.d.): 0 | ALT or AST >3xULN and Bili >2xULN within 30 days, subjects with event ([3]; 50 mg b.i.d.): 0 | ALT or AST >3xULN, subjects with event ([3]; 50 mg b.i.d.): 0 | ALT or AST >5xULN, subjects with event ([3]; 50 mg b.i.d.): 0 | Adverse Events leading to premature discontinuation, rate ([3]; 50 mg b.i.d.): 21.3 % per year | Adverse Events leading to premature discontinuation, subjects with event ([3]; 50 mg b.i.d.): 5 | MI, subjects with event ([3]; 50 mg b.i.d.): 0 | Major Bleeds with aspirin, subjects with event ([3]; 50 mg b.i.d.): 0 | Major Bleeds without aspirin, subjects with event ([3]; 50 mg b.i.d.): 0 | Major Bleeds, subjects with event ([3]; 50 mg b.i.d.): 0 | Other MACE, subjects with event ([3]; 50 mg b.i.d.): 2 | Stroke and Systemic Thromboembolism, subjects with event ([3]; 50 mg b.i.d.): 3 | TIA, subjects with event ([3]; 50 mg b.i.d.): 0 | ALT or AST >2xULN, subjects with event ([3]; 50 mg q.d.): 0 | ALT or AST >3xULN and Bili >2xULN within 30 days, subjects with event ([3]; 50 mg q.d.): 0 | ALT or AST >3xULN, subjects with event ([3]; 50 mg q.d.): 0 | ALT or AST >5xULN, subjects with event ([3]; 50 mg q.d.): 0 | Adverse Events leading to premature discontinuation, subjects with event ([3]; 50 mg q.d.): 0 | MI, subjects with event ([3]; 50 mg q.d.): 0 | Major Bleeds with aspirin, subjects with event ([3]; 50 mg q.d.): 0 | Major Bleeds without aspirin, subjects with event ([3]; 50 mg q.d.): 0 | Major Bleeds, subjects with event ([3]; 50 mg q.d.): 0 | Other MACE, subjects with event ([3]; 50 mg q.d.): 0 | Stroke and Systemic Thromboembolism, subjects with event ([3]; 50 mg q.d.): 0 | TIA, subjects with event ([3]; 50 mg q.d.): 0 | ALT or AST >2xULN, rate ([3]; 150 mg b.i.d.): 3.1 % per year | ALT or AST >2xULN, subjects with event ([3]; 150 mg b.i.d.): 21 | ALT or AST >3xULN and Bili >2xULN within 30 days, rate ([3]; 150 mg b.i.d.): 0.4 % per year | ALT or AST >3xULN and Bili >2xULN within 30 days, subjects with event ([3]; 150 mg b.i.d.): 3 | ALT or AST >3xULN, rate ([3]; 150 mg b.i.d.): 1.9 % per year | ALT or AST >3xULN, subjects with event ([3]; 150 mg b.i.d.): 13 | ALT or AST >5xULN, rate ([3]; 150 mg b.i.d.): 1.0 % per year | ALT or AST >5xULN, subjects with event ([3]; 150 mg b.i.d.): 7 | Adverse Events leading to premature discontinuation, rate ([3]; 150 mg b.i.d.): 9.8 % per year | Adverse Events leading to premature discontinuation, subjects with event ([3]; 150 mg b.i.d.): 67 | MI, subjects with event ([3]; 150 mg b.i.d.): 6 | Major Bleeds with aspirin, rate ([3]; 150 mg b.i.d.): 8.7 % per year | Major Bleeds with aspirin, subjects with event ([3]; 150 mg b.i.d.): 11 | Major Bleeds without aspirin, rate ([3]; 150 mg b.i.d.): 3.2 % per year | Major Bleeds without aspirin, subjects with event ([3]; 150 mg b.i.d.): 18 | Major Bleeds, rate ([3]; 150 mg b.i.d.): 4.2 % per year | Major Bleeds, subjects with event ([3]; 150 mg b.i.d.): 29 | Other MACE, subjects with event ([3]; 150 mg b.i.d.): 7 | Stroke and Systemic Thromboembolism, subjects with event ([3]; 150 mg b.i.d.): 7 | TIA, subjects with event ([3]; 150 mg b.i.d.): 1 | ALT or AST >2xULN, rate ([3]; 150 mg q.d.): 3.4 % per year | ALT or AST >2xULN, subjects with event ([3]; 150 mg q.d.): 2 | ALT or AST >3xULN and Bili >2xULN within 30 days, subjects with event ([3]; 150 mg q.d.): 0 | ALT or AST >3xULN, subjects with event ([3]; 150 mg q.d.): 0 | ALT or AST >5xULN, subjects with event ([3]; 150 mg q.d.): 0 | Adverse Events leading to premature discontinuation, rate ([3]; 150 mg q.d.): 13.7 % per year | Adverse Events leading to premature discontinuation, subjects with event ([3]; 150 mg q.d.): 8 | MI, subjects with event ([3]; 150 mg q.d.): 0 | Major Bleeds with aspirin, subjects with event ([3]; 150 mg q.d.): 0 | Major Bleeds without aspirin, rate ([3]; 150 mg q.d.): 6.5 % per year | Major Bleeds without aspirin, subjects with event ([3]; 150 mg q.d.): 3 | Major Bleeds, rate ([3]; 150 mg q.d.): 5.1 % per year | Major Bleeds, subjects with event ([3]; 150 mg q.d.): 3 | Other MACE, subjects with event ([3]; 150 mg q.d.): 0 | Stroke and Systemic Thromboembolism, subjects with event ([3]; 150 mg q.d.): 3 | TIA, subjects with event ([3]; 150 mg q.d.): 0 | ALT or AST >2xULN, rate ([3]; 300 mg b.i.d.): 4.9 % per year | ALT or AST >2xULN, subjects with event ([3]; 300 mg b.i.d.): 4 | ALT or AST >3xULN and Bili >2xULN within 30 days, subjects with event ([3]; 300 mg b.i.d.): 0 | ALT or AST >3xULN, rate ([3]; 300 mg b.i.d.): 2.4 % per year | ALT or AST >3xULN, subjects with event ([3]; 300 mg b.i.d.): 2 | ALT or AST >5xULN, rate ([3]; 300 mg b.i.d.): 1.2 % per year | ALT or AST >5xULN, subjects with event ([3]; 300 mg b.i.d.): 1 | Adverse Events leading to premature discontinuation, rate ([3]; 300 mg b.i.d.): 25.6 % per year | Adverse Events leading to premature discontinuation, subjects with event ([3]; 300 mg b.i.d.): 21 | MI, subjects with event ([3]; 300 mg b.i.d.): 0 | Major Bleeds with aspirin, rate ([3]; 300 mg b.i.d.): 32.7 % per year | Major Bleeds with aspirin, subjects with event ([3]; 300 mg b.i.d.): 6 | Major Bleeds without aspirin, rate ([3]; 300 mg b.i.d.): 6.3 % per year | Major Bleeds without aspirin, subjects with event ([3]; 300 mg b.i.d.): 4 | Major Bleeds, rate ([3]; 300 mg b.i.d.): 12.2 % per year | Major Bleeds, subjects with event ([3]; 300 mg b.i.d.): 10 | Other MACE, subjects with event ([3]; 300 mg b.i.d.): 1 | Stroke and Systemic Thromboembolism, subjects with event ([3]; 300 mg b.i.d.): 1 | TIA, subjects with event ([3]; 300 mg b.i.d.): 0 | ALT or AST >2xULN, rate ([3]; 300 mg q.d.): 1.5 % per year | ALT or AST >2xULN, subjects with event ([3]; 300 mg q.d.): 3 | ALT or AST >3xULN and Bili >2xULN within 30 days, rate ([3]; 300 mg q.d.): 0.5 % per year | ALT or AST >3xULN and Bili >2xULN within 30 days, subjects with event ([3]; 300 mg q.d.): 1 | ALT or AST >3xULN, rate ([3]; 300 mg q.d.): 1.5 % per year | ALT or AST >3xULN, subjects with event ([3]; 300 mg q.d.): 3 | ALT or AST >5xULN, rate ([3]; 300 mg q.d.): 1.5 % per year | ALT or AST >5xULN, subjects with event ([3]; 300 mg q.d.): 3 | Adverse Events leading to premature discontinuation, rate ([3]; 300 mg q.d.): 9.6 % per year | Adverse Events leading to premature discontinuation, subjects with event ([3]; 300 mg q.d.): 19 | MI, subjects with event ([3]; 300 mg q.d.): 1 | Major Bleeds with aspirin, rate ([3]; 300 mg q.d.): 3.6 % per year | Major Bleeds with aspirin, subjects with event ([3]; 300 mg q.d.): 2 | Major Bleeds without aspirin, rate ([3]; 300 mg q.d.): 2.1 % per year | Major Bleeds without aspirin, subjects with event ([3]; 300 mg q.d.): 3 | Major Bleeds, rate ([3]; 300 mg q.d.): 2.5 % per year | Major Bleeds, subjects with event ([3]; 300 mg q.d.): 5 | Other MACE, subjects with event ([3]; 300 mg q.d.): 1 | Stroke and Systemic Thromboembolism, subjects with event ([3]; 300 mg q.d.): 5 | TIA, subjects with event ([3]; 300 mg q.d.): 0 | Serious adverse events: cardiac disorders, number of patients ([3]; PETRO-Ex): 80 | Serious adverse events: gastrointestinal disorders, number of patients ([3]; PETRO-Ex): 28 | Serious adverse events: infections, number of patients ([3]; PETRO-Ex): 34 | Serious adverse events: nervous system disorders, number of patients ([3]; PETRO-Ex): 33 | Serious adverse events, number of patients ([3]; PETRO-Ex, including bleeding and thrombotic events): 184 | ALT or AST >2xULN, rate ([3]; Total (all doses)): 2.9 % per year | ALT or AST >2xULN, subjects with event ([3]; Total (all doses)): 30 | ALT or AST >3xULN and Bili >2xULN within 30 days, rate ([3]; Total (all doses)): 0.4 % per year | ALT or AST >3xULN and Bili >2xULN within 30 days, subjects with event ([3]; Total (all doses)): four | ALT or AST >3xULN, rate ([3]; Total (all doses)): 1.7 % per year | ALT or AST >3xULN, subjects with event ([3]; Total (all doses)): 18 | ALT or AST >5xULN, rate ([3]; Total (all doses)): 1.1 % per year | ALT or AST >5xULN, subjects with event ([3]; Total (all doses)): 11 | Adverse Events leading to premature discontinuation, rate ([3]; Total (all doses)): 11.5 % per year | Adverse Events leading to premature discontinuation, subjects with event ([3]; Total (all doses)): 120 | MI, subjects with event ([3]; Total (all doses)): 7 | Major Bleeds with aspirin, rate ([3]; Total (all doses)): 8.5 % per year | Major Bleeds with aspirin, subjects with event ([3]; Total (all doses)): 19 | Major Bleeds without aspirin, rate ([3]; Total (all doses)): 3.2 % per year | Major Bleeds without aspirin, subjects with event ([3]; Total (all doses)): 26 | Major Bleeds, rate ([3]; Total (all doses)): 4.2 % per year | Major Bleeds, subjects with event ([3]; Total (all doses)): 44 | Other MACE, subjects with event ([3]; Total (all doses)): 11 | Stroke and Systemic Thromboembolism, subjects with event ([3]; Total (all doses)): 20 | TIA, subjects with event ([3]; Total (all doses)): 1 | ALT or AST >3xULN and Bili >2xULN within 30 days, subjects with event ([3]; Total (all doses), listed as Dabigatran etexilate): 4 | Risk ratio of bleeding event rate on concomitant aspirin vs. without ([3]; in vivo): 2.70 | Final Outcome/Comment of LFT abnormality ([3]; individual patients with LFT abnormalities, one table line per patient (age c0, sex c1)): Recovered | LFT abnormality ALT/ULN [3, 4]: >5x xULN (4×) and >5x^# xULN (2×) and >3x xULN (5×) and >3x^# xULN | LFT abnormality AST/ULN [3, 4]: >5x^# xULN (4×) and >5x xULN (4×) and >3x xULN (5×) | Final Outcome/Comment of LFT abnormality ([3]; individual patients with LFT abnormalities, one table line per patient (age c0, sex c1), listed as Dabigatran etexilate): Fatal
